In patent publication US20250213588A1, “STERILIZATION METHOD OF PHARMACEUTICAL PREPARATION AND PACKAGING” (SANTEN PHARMACEUTICAL CO., LTD., priority 2022, published 2025):
Entries after “also recorded” stand apart in the source; their conditions may differ.

Columns and labels:
Type in all cases: physicochemical
[1] = Absorption wavelength measurement test (UV-visible spectrophotometer); conditions: 0.0025% AFDX0250 solution in acetonitrile
Experimental: The absorption wavelength of AFDX0250 was measured.
AFDX0250 (10 mg) was dissolved in acetonitrile, and the solution was adjusted exactly to 100 mL to prepare 0.01% AFDX0250 solution. The solution was diluted 4-fold to prepare 0.0025% AFDX0250 solution. The prepared 0.0025% AFDX0250 solution was used as a test preparation.
The absorption spectrum of the prepared test preparation was measured using ultraviolet visible spectrophotometer.

[2] = Stability evaluation test after sterilization treatment; conditions: for Hydrolysate (%): Example 6 test preparation; for Residual ratio (%): Example 6 test preparation (0.25 g AFDX0250 in 50 mL, citrate buffer, sodium chloride)
Experimental: An aqueous pharmaceutical composition comprising AFDX0250 or a salt thereof was sterilized to evaluate the stability of AFDX0250 in a preparation.
Sodium citrate hydrate (2.5 g) was dissolved in purified water and the solution was adjusted exactly to 100 mL to prepare 2.5% sodium citrate hydrate solution. Citric acid hydrate (0.2 g) was dissolved in purified water and the solution was adjusted exactly to 100 mL to prepare 0.2% citric acid hydrate solution. Sodium chloride (5 g) was dissolved in purified water and the solution was adjusted exactly to 50 mL to prepare 10% sodium chloride solution. 0.25 g of AFDX0250 was weighed, the weighed AFDX0250 was mixed with 10 mL each of 2.5% sodium citrate hydrate solution, 0.2% citric acid hydrate solution and 10% sodium chloride solution, and then the solution was adjusted exactly to 50 mL with purified water to prepare a test preparation.
The prepared test preparation was subjected to gamma radiation sterilization, sterilization by filtration using a filter or autoclaved (AC) sterilization to prepare a sterile formulation. The amount of AFDX0250 after each sterilization treatment was quantified by high performance liquid chromatography to calculate the residual ratio of AFDX0250 (%). The residual ratio of AFDX0250 (%) represents the ratio of AFDX0250 (%) after sterilization treatment when the amount of AFDX0250 in the test preparation is 100%. In addition, the amount of AFDX0250-derived hydrolysate (5,11-dihydro-6H-pyrido[2,3-b][1,4]benzodiazepin-6-one) in each test preparation excluding the test preparation subjected to gamma radiation sterilization was quantified by high performance liquid chromatography.

[3] = Photostability test (1): irradiation at specific wavelengths; conditions: Preparations 1 and 2; irradiated for 24 hours with multi-wavelength irradiation spectrometer; HPLC (FIG. 2)
Experimental: The stability of the aqueous pharmaceutical composition comprising AFDX0250 or a salt thereof under light irradiation was studied.
Preparation 1 with the composition shown in the above Table 1 and Preparation 2 with the composition shown in Table 4 were prepared in usual manners. The prepared preparations were used as test preparations.
The prepared test preparations were irradiated at specific wavelengths using multi-wavelength irradiation spectrometer for 24 hours, and the amount of AFDX0250 in each test preparation at each irradiation wavelength after the irradiation was quantified by high performance liquid chromatography to calculate the residual ratio of AFDX0250 (%). The residual ratio of AFDX0250 (%) represents the ratio of AFDX0250 (%) after irradiation when the amount of AFDX0250 in the test formulation is 100%.

[4] = after AC (autoclaved) sterilization
[5] = after sterilization by filtration using a filter

Hydrolysate (%) [2, 4]: 0.37% | Residual ratio (%) [2, 4]: 93.8% | Residual ratio (%) ([2]; after gamma radiation sterilization): 55.7% | Hydrolysate (%) [2, 5]: 0.06% | Residual ratio (%) [2, 5]: 100.3%
SMILES: CCN(CC)C[C@H]1CCCCN1CC(=O)N1c2ccccc2C(=O)Nc2cccnc21 [AFDX0250, (R)-11-[2-[2-[(diethylamino)methyl]-1-piperidinyl]acetyl]-5,11-dihydro-6H-pyrido[2,3-b][1,4]benzodiazepin-6-one]
absorption spectrum of AFDX0250 [1]: no absorption of AFDX0250 was observed at the longer wavelengths than about 330 nm | degradation of AFDX0250 under irradiation at specific wavelengths [3]: degraded at a wavelength of from 216 to 310 nm and 372 nm; also recorded: particularly degraded at a wavelength of 370 nm
